Laboratory results published in patent US11505547B2, “Compounds” (STEP PHARMA S.A.S., priority 2017, dated 2022).

Molecular target: T1, human CTPS1 (Homo sapiens, UniProt P17812)
T1 construct: purchased Proteros biostructures GmbH
T1 sequence (P17812 1-591): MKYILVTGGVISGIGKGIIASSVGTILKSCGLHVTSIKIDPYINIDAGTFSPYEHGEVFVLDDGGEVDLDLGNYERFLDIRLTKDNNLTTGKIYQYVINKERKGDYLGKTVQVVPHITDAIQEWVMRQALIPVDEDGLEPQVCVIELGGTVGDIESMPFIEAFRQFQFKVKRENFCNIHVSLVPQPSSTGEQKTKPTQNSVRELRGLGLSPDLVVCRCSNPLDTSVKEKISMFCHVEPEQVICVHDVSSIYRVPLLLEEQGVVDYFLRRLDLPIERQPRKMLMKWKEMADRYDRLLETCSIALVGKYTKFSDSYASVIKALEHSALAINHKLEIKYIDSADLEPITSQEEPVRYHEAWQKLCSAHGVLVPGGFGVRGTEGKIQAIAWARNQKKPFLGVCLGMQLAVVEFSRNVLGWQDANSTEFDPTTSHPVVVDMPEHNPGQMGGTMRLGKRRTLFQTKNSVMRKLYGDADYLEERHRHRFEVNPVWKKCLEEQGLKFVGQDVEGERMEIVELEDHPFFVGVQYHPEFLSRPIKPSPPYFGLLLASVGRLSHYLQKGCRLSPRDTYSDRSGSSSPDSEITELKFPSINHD
Test: Human CTPS1 enzyme inhibition, ADP-Glo Max assay
Type: biochemical
Settings: human full length CTPS1, read-out: CTPS1 (Human CTPS1 Enzyme Inhibition data grouped by potency range, IC50)
Experimental: Biological Example 1—Human CTPS1 Enzyme Inhibition
The enzyme inhibitory activities of compounds invented against the target of interest were determined using the ADP-Glo™ Max assay (Promega, UK). Assays for human CTPS1 were performed in 1× assay buffer containing 50 mM Tris, 10 mM MgCl2, 0.01% Tween-20, pH to 8.0 accordingly. Finally, immediately before use, L-cysteine was added to the 1× assay buffer to a final concentration of 2 mM. All reagents are from Sigma-Aldrich unless specified otherwise. Human full length active C-terminal FLAG-Hiss-tag CTPS1 (UniProtKB-P17812, CTPS[1-591]-[…]) was obtained from Proteros biostructures GmbH.
3× human CTPS1 protein was prepared in 1× assay buffer to the final working protein concentration required for the reaction. A 2 uL volume per well of 3× human CTPS1 protein was mixed with 2 uL per well of 3× test compound (compound prepared in 1× assay buffer to an appropriate final 3× compound concentration respective to the concentration response curve designed for the compounds under test) for 10 minutes at 25° C. The enzymatic reaction was then initiated by addition of a 2 uL per well volume of a pre-mixed substrate mix (UltraPure ATP from ADP-Glo™ Max kit (0.31 mM), GTP (0.034 mM), UTP (0.48 mM) and L-glutamine (0.186 mM)) and the mixture was incubated for an appropriate amount of time within the determined linear phase of the reaction at 25° C. under sealed plate conditions with constant agitation at 500 revolutions per minute (rpm). ADP-GIo™ Max reagent was added for 60 minutes (6 uL per well) and subsequently ADP-Glo™ Max development reagent was added for 60 minutes (12 uL per well) prior to signal detection in a microplate reader (EnVision® Multilabel Reader, Perkin Elmer). Following each reagent addition over the course of the assay, assay plates were pulse centrifuged for 30 seconds at 500 rpm.
In all cases, the enzyme converts ATP to ADP and the ADP-Glo™ Max reagent subsequently depletes any remaining endogenous ATP in the reaction system. The ADP-Glo™ Max detection reagent converts the ADP that has been enzymatically produced back into ATP and using ATP as a substrate together with luciferin for the enzyme luciferase, light is generated which produces a detectable luminescence. […] The percentage inhibition produced by each concentration of compound was calculated using the equation shown below: […]
Percentage inhibition was then plotted against compound concentration, and the 50% inhibitory concentration (IC50) was determined from the resultant concentration-response curve.

Row | SMILES | IC50 [nM]
1 | CCC(NC(=O)c1ccc(-c2cncc(C(F)(F)F)c2)cc1)c1csc(NS(=O)(=O)C2CC2)n1 (racemic) [Example R2, N-(1-(2-(cyclopropanesulfonamido)thiazol-4-yl)propyl)-4-(5-(trifluoromethyl)pyridin-3-yl)benzamide] | 100 to 1000
2 | CCC(NC(=O)c1ccc(-c2cncc(F)c2)cc1)c1csc(NS(=O)(=O)C2CC2)n1 (racemic) [Example R59, N-(1-(2-(cyclopropanesulfonamido)thiazol-4-yl)propyl)-4-(5-fluoropyridin-3-yl)benzamide] | 100 to 1000
3 | CCC(NC(=O)c1ccc(-c2cncc(C)c2)cc1)c1csc(NS(=O)(=O)C2CC2)n1 (racemic) [Example R60, N-(1-(2-(cyclopropanesulfonamido)thiazol-4-yl)propyl)-4-(5-methylpyridin-3-yl)benzamide] | 100 to 1000
4 | CCC(NC(=O)c1ccc(-c2cccnc2)cc1)c1csc(NS(=O)(=O)C2CC2)n1 (racemic) [Example R61, N-(1-(2-(cyclopropanesulfonamido)thiazol-4-yl)propyl)-4-(pyridin-3-yl)benzamide] | 100 to 1000
5 | CCOc1cncc(-c2ccc(C(=O)NC(CC)c3csc(NS(=O)(=O)C4CC4)n3)c(F)c2)n1 (racemic) [Example R62, N-(1-(2-(cyclopropanesulfonamido)thiazol-4-yl)propyl)-4-(6-ethoxypyrazin-2-yl)-2-fluorobenzamide] | 100 to 1000
6 | CCOc1cncc(-c2ccc(C(=O)N(C)C(CC)c3csc(NS(=O)(=O)C4CC4)n3)c(F)c2)n1 (racemic) [Example R63, N-(1-(2-(cyclopropanesulfonamido)thiazol-4-yl)propyl)-4-(6-ethoxypyrazin-2-yl)-2-fluoro-N-methylbenzamide] | 100 to 1000
7 | CCC(NC(=O)c1ccc(-c2cncc(OC(C)C)n2)cc1F)c1csc(NS(=O)(=O)C2CC2)n1 (racemic) [Example R64, N-(1-(2-(cyclopropanesulfonamido)thiazol-4-yl)propyl)-2-fluoro-4-(6-isopropoxypyrazin-2-yl)benzamide] | 100 to 1000
8 | CCC(NC(=O)c1ccc(-c2cncc(Cl)n2)cc1)c1csc(NS(=O)(=O)C2CC2)n1 (racemic) [Example R65, 4-(6-chloropyrazin-2-yl)-N-(1-(2-(cyclopropanesulfonamido)thiazol-4-yl)propyl)benzamide] | < 100
9 | CCC(NC(=O)c1ccc(-c2cncc(C)n2)cc1)c1csc(NS(=O)(=O)C2CC2)n1 (racemic) [Example R66, N-(1-(2-(cyclopropanesulfonamido)thiazol-4-yl)propyl)-4-(6-methylpyrazin-2-yl)benzamide] | 100 to 1000
10 | CCC(NC(=O)c1ccc(-c2cnccn2)cc1)c1csc(NS(=O)(=O)C2CC2)n1 (racemic) [Example R67, N-(1-(2-(cyclopropanesulfonamido)thiazol-4-yl)propyl)-4-(pyrazin-2-yl)benzamide] | 100 to 1000
11 | CCC(NC(=O)c1ccc(-c2cncc(C(F)(F)F)c2)cc1)c1csc(NS(=O)(=O)C2CC2)n1 (single isomer, unassigned) [Example R3, N-(1-(2-(cyclopropanesulfonamido)thiazol-4-yl)propyl)-4-(5-(trifluoromethyl)pyridin-3-yl)benzamide] | 100 to 1000
12 | CCC(NC(=O)c1ccc(-c2cncc(C(F)(F)F)c2)cc1)c1csc(NS(=O)(=O)C2CC2)n1 (single isomer, unassigned) [Example R4, N-(1-(2-(cyclopropanesulfonamido)thiazol-4-yl)propyl)-4-(5-(trifluoromethyl)pyridin-3-yl)benzamide] | < 100
13 | CCC(NC(=O)c1ccc(-c2cncc(F)c2)cc1)c1csc(NS(=O)(=O)C2CC2)n1 (single isomer, unassigned) [Example R68, N-(1-(2-(cyclopropanesulfonamido)thiazol-4-yl)propyl)-4-(5-fluoropyridin-3-yl)benzamide] | 1000 to 10000
